In the supplement of paper PMC10307832:

Tests used:
Assay in all cases: relative viability (nuclei count vs DMSO), 5 days (fraction); higher = more cells survive
[1] = compound: NCC(=O)Nc1ccc(-n2nc(C(F)(F)F)cc2-c2ccc3c(ccc4ccccc43)c2)cc1 + CC(C)C[C@H](NC(=O)[C@H](Cc1ccccc1)NC(=O)c1cnccn1)B(O)O [Bortezomib] (partner 0.002 µM)
In short: (§1)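 Values are medians from duplicate plates. Each reflects relative viability, defined as the nuclei count of treated wells over that of vehicle wells. Lung cancer cell lines in 1536-well plates were pin-tool dosed one day after seeding with one drug alone or with a fixed anchor-drug dose plus five library-drug doses (not always all listed) in √10 steps, then fixed, stained and imaged at 4× after 5 days.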

kb NB 142-70 + Foretinib = compound: C1CSC2=C(C(=O)N1)SC3=C2C=C(C=C3)O [kb NB 142-70] + COc1cc2c(Oc3ccc(NC(=O)C4(C(=O)Nc5ccc(F)cc5)CC4)cc3F)ccnc2cc1OCCCN1CCOCC1 [Foretinib] (partner 0.25 µM)
In short: as §1

[2] = compound: C1CSC2=C(C(=O)N1)SC3=C2C=C(C=C3)O [kb NB 142-70] + O=C(CCCCCCC(=O)Nc1ccccc1)NO [Vorinostat] (partner 1 µM)
In short: as §1

[3] = compound: NCC(=O)Nc1ccc(-n2nc(C(F)(F)F)cc2-c2ccc3c(ccc4ccccc43)c2)cc1 + C[C@@H](Oc1cc(-c2cnn(C3CCNCC3)c2)cnc1N)c1c(Cl)ccc(F)c1Cl [Crizotinib] (partner 1 µM)
In short: as §1

kb NB 142-70 + OSI-027 = compound: C1CSC2=C(C(=O)N1)SC3=C2C=C(C=C3)O [kb NB 142-70] + COc1cccc2cc(-c3nc([C@H]4CC[C@H](C(=O)O)CC4)n4ncnc(N)c34)[nH]c12 [OSI-027] (partner 0.5 µM)
In short: as §1

UMC-11 showed a relative viability ([1]; first compound 0.02 µM) of 0.831, a relative viability ([1]; first compound 0.06325 µM) of 0.762 and a relative viability ([1]; first compound 0.2 µM) of 0.693. The relative viability ([1]; first compound 0.6325 µM) was 0.658, the relative viability ([1]; first compound 2 µM) was 0.674 and the relative viability (kb NB 142-70 + Foretinib; first compound 0.1 µM) was 0.934. The relative viability (kb NB 142-70 + Foretinib; first compound 1 µM) was 0.92, the relative viability (kb NB 142-70 + Foretinib; first compound 3.162 µM) was 0.64 and the relative viability ([2]; first compound 0.1 µM) was 0.39. For the same cell line, the relative viability ([2]; first compound 1 µM) was 0.316, the relative viability ([2]; first compound 3.162 µM) was 0.223 and the relative viability ([3]; first compound 0.02 µM) was 0.728. For the same cell line, the relative viability ([3]; first compound 0.06325 µM) was 0.638, the relative viability ([3]; first compound 0.2 µM) was 0.622 and the relative viability ([3]; first compound 0.6325 µM) was 0.604. The relative viability ([3]; first compound 2 µM) was 0.567, the relative viability (kb NB 142-70 + OSI-027; first compound 0.1 µM) was 0.463 and the relative viability (kb NB 142-70 + OSI-027; first compound 1 µM) was 0.468. The relative viability (kb NB 142-70 + OSI-027; first compound 3.162 µM) was 0.298.
